Legend:
[1] = test system: atherosclerotic lesions in the aorta; experiment: Atherosclerotic lesion area in oil red O-stained aortas of ApoE-/- mice; assay type: in vivo; conditions: 9-month-old ApoE-/- mice, 10 mg/kg/d in drinking water for 8 months
Protocol: ApoE−/− mice (Taconic Biosciences, Rensselaer, N.Y., USA) with deficiency of apolipoprotein E (ApoE−/−) due to disruption of the endogenous ApoE gene were used as a genetic model of atherosclerosis (Piedrahita et al., Proc. Natl. Acad. Sci. U.S.A., 89, 4471-4475, 1992). Atherosclerotic lesion area was determined by quantitative image analysis with oil red O-stained aortas. Total plasma cholesterol was determined by a commercial kit (Sigma). Mice were kept on a 12 h dark and 12 h light cycle, had free access to food and water, and were fed a standard rodent chow (AIN-95-based diet without vitamin E supplementation and with 7% fat and 0.15% cholesterol). For the study, we used ApoE−/− mice on a B6 (C57BL/6J) background and non-transgenic B6 control mice. Alizarin treatment (10 mg/kg/day in drinking water) was initiated at an age of 4 weeks and continued for eight months until the end of the observation period. […]
Alzheimer's Disease (AD) is the most frequent form of dementia in the elderly. […] Atherosclerotic lesion area was assessed with oil red O-stained aortas isolated from 9-month-old ApoE−/− mice (FIG. 17A). […] The aortic expression levels of neuronal marker genes of alizarin-treated ApoE−/− mice were determined compared to untreated ApoE−/− mice and untreated B6 mice without atherosclerosis (FIG. 17D,E).

Tomm6 = biological target: T1, Tomm6 (Mus musculus, UniProt Q9CQN3); experiment: Immunoblot detection of hippocampal Tomm6 protein in treated Tg2576 mice; assay type: in vivo; conditions: aged Tg2576 mice treated for 6 months
T1 construct: hippocampi were isolated from 5-10 aged Tg2576 mice, pulverized under liquid nitrogen and solubilized; from tissue; host or cells: hippocampus of Tg2576 mice
T1 sequence (Q9CQN3 1-74): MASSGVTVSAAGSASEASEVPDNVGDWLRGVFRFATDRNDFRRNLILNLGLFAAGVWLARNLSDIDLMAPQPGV

[2] = humans; cited from earlier work
Salmonella strain TA2637 = conditions: cited from earlier work
[3] = Tolerability / toxicity in dogs during four weeks of oral treatment; assay type: in vivo; conditions: once daily oral dose up to 6 mg/kg/d
Protocol: Sub-chronic toxicity studies in dogs (German Shepherd dogs) and rats (Sprague Dawley rats) were performed by the Center of Applied Analytical and Veterinary Studies, Cairo, Egypt.

[4] = test system: angiotensin II AT2 receptor (AT2R, AGTR2); experiment: AT2R protein aggregation assay in HEK cells, immunoblot; assay type: cell-based, human; conditions: 10 microM for 72 h
Protocol: Proteins were also extracted from yeast cells and HEK cells expressing the indicated protein (i.e. HBsAg or AGTR2) as described above. Neuronal cell loss and hyperphosphorylated Tau in hippocampi of 15 months-old Tg2576 mice subjected to the CUMS protocol for 3 months was determined with crude homogenates of dissected hippocampi by direct binding assay with neuron-specific [^125I]-labeled anti-NeuN antibody (MAB377, clone A60, EMD Millipore, Merck KGaA, Darmstadt, Germany) and [^125I]-labeled AT8 antibody similarly as described (AbdAlla et al., J. Biol. Chem. 284, 6554-6565 (2009)).
In the second non-Abeta-based protein aggregation assay, different plant extracts were tested in a mammalian cell system, which analyzed the protein aggregation of the angiotensin II AT2 receptor (AT2R, AGTR2) protein in human embryonic kidney (HEK) cells. The system has physiological relevance because this cellular system is capable to reproduce AT2R protein aggregation, which also occurs in brains of AD patients and AD animal models (AbdAlla et al., J. Biol. Chem. 284, 6554-6565 (2009); AbdAlla et al., J. Biol. Chem. 284, 6566-6574 (2009)). The AT2 receptor in human embryonic kidney (HEK) cells forms stable dimers/oligomers under pro-oxidant conditions, which are resistant to urea-containing reducing SDS-PAGE (FIG. 2A, and AbdAlla et al., J. Biol. Chem. 284, 6566-6574 (2009)). […]

mammalian cells = mammalian cells and in vivo; cited from earlier work

Question: With O=C1c2ccccc2C(=O)c2c1ccc(O)c2O [Compound-1, 1,2-dihydroxyanthraquinone] as the molecule, how does the “atherosclerotic lesion area, lower compared to untreated ApoE-/- mice” value [1] read?
Answer: 3.6 fold

Question: What about the “hippocampal protein content of Tomm6” value (Tomm6) of the same molecule?
Answer: substantially increased

Question: And the “toxicity of long-term treatment for several years” value [2]?
Answer: is not toxic

Question: And the “mutagenicity in the Ames test” value (Salmonella strain TA2637)?
Answer: could be mutagenic

Question: And the “adverse effects (behaviour, food intake, weight gain, cardiovascular parameters, blood cells, clinical chemistry)” value [3]?
Answer: did not induce any detectable adverse effects

Question: What about the “aggregation of the AT2 receptor” value [4] of the same molecule?
Answer: inhibited the aggregation of the AT2 receptor

Question: And the tumor promotion (mammalian cells)?
Answer: not a tumor promotor

Source: US20210186947A1, “TOMM6-INTERACTING EXTRACTS AND COMPOUNDS FOR USE IN THE TREATMENT AND PROPHYLAXIS OF NERVOUS SYSTEM DISEASES, ATHEROSCLEROSIS, HEPATITIS B INFECTION AND HUMAN PAPILLOMA VIRUS (HPV) INFECTION” (ETH ZURICH, priority 2018, published 2021)
